Test results from patent US20140349944A1, “CHAPERONE-BASED INTEGRIN INHIBITORS FOR THE TREATMENT OF CANCER AND INFLAMMATORY DISEASES” (priority 2013, published 2014).

Tested on: gp96 and αL-HA in RAW264.7 cells
Assay: Tunicamycin treatment of RAW264.7 cells, IP and immunoblot
Assay type: cell-based
Details: 5 μg/ml Tunicamycin

Tunicamycin
binding of immature ER αL-HA to gp96 (12 hours (FIG. 1E)): reduction in binding to gp96 | dimerization of matured cell surface αL-HA with β2-myc (12 hours (FIG. 1E)): no change | gp96 expression (12 hours, via unfolded protein response): upregulation
